Among the data in patent US20040142317A1, “Use of amino acid transporter atbo,+ as a delivery system for drugs and prodrugs” (priority 2003, published 2004) are D-serine transport values, retold here.

Holding throughout (assay): D-[3H]-serine transport in HRPE cells transfected with transporter cDNA
Type in all cases: cell-based
Holding throughout (settings): D-[3H]-serine 5 μM

In one test the target is T1, LAT2/4F2hc (Homo sapiens, UniProt Q9UHI5).
T1 construct: expressed in transfected cells; host or cells: HRPE cells
T1 sequence (Q9UHI5 1-535): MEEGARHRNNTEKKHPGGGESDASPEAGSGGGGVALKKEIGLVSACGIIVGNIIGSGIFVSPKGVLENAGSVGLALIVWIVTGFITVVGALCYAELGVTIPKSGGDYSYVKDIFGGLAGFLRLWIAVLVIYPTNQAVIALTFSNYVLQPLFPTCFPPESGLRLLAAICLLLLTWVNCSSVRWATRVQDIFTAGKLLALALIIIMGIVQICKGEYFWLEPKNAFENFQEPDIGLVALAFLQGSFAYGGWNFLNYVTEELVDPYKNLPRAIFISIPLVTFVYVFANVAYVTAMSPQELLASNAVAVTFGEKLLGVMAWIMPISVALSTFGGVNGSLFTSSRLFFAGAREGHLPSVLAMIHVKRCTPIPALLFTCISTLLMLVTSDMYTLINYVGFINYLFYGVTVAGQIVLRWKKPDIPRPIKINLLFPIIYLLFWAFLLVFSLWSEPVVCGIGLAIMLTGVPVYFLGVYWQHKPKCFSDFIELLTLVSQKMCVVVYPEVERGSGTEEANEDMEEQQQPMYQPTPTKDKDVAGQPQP
T1 sequence (P08195 1-529 partner): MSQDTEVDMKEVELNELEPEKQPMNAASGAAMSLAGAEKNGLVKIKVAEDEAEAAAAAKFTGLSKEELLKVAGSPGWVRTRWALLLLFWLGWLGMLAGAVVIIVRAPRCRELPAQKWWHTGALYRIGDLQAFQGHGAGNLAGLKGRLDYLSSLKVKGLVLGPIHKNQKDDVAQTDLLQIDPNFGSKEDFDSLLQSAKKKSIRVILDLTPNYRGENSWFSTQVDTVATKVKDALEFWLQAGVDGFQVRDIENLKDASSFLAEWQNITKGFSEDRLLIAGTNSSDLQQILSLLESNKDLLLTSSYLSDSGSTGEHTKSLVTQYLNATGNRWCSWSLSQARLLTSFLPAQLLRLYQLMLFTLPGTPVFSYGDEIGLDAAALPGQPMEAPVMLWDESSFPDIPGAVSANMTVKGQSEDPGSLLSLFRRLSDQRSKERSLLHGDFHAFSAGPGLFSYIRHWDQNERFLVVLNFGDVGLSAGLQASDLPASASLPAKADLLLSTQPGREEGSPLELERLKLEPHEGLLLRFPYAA
The method, then:
(§1) Transport of D-[^3H]-serine (5 μM) was measured in HRPE cells transfected with cDNA of each transporter.
(§2) The present inventors evaluated the function of 10 different amino acid transporter clones with respect to transport of D-serine in heterologous expression systems (FIG. 11). All of these transporters are expressed in the intestinal tract. The list of the transporters tested include three energy-independent, heterodimeric facilitative transporters (L1, L2, and b^0,+), three subtypes of the Na^+-coupled system A (ATA1, ATA2, and ATA3), two subtypes of the Na^+- and H^+-coupled system N (SN1 and SN2), the Na^+-coupled system ATB^0, and the Na^+- and Cl^−-coupled system ATB^0,+. […] The ability to transport D-serine was the highest for the Na^+- and Cl^−-coupled transporter ATB^0,+. ATB^0,+ belongs to the gene family of neurotransmitter transporters whose transport function is energized by multiple driving forces, namely a Na^+ gradient, a Cl^− gradient, and membrane potential. […] Based on the energetics of these two transport systems, ATB^0,+ is expected to play the leading role in this process.

Another test has as its target T2, system L1 (LAT1/4F2hc) (Homo sapiens, UniProt Q01650).
T2 construct: expressed in transfected cells; host or cells: HRPE cells
The method, then:
as §1, §2

Another test deals with T3, ATA3 (Homo sapiens, UniProt Q969I6).
T3 construct: expressed in transfected cells; host or cells: HRPE cells
T3 sequence (Q969I6 1-547): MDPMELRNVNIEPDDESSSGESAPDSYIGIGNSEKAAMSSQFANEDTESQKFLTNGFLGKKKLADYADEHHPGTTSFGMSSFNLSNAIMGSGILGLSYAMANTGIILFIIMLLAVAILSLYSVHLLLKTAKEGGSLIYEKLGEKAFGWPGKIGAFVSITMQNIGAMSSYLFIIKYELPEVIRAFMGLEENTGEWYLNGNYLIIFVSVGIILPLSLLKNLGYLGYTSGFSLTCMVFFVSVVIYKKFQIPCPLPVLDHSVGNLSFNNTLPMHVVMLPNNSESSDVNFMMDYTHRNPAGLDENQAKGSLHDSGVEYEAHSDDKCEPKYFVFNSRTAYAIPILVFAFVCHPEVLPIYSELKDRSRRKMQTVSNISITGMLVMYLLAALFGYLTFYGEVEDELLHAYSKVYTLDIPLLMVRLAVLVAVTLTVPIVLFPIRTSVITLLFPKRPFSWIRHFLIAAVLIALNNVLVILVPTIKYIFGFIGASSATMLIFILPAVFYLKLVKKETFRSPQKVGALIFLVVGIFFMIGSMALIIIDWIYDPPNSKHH
The method, then:
as §1, §2

The next test concerns the target T4, ATA2 (Homo sapiens, UniProt Q96QD8).
T4 construct: expressed in transfected cells; host or cells: HRPE cells
T4 sequence (Q96QD8 1-506): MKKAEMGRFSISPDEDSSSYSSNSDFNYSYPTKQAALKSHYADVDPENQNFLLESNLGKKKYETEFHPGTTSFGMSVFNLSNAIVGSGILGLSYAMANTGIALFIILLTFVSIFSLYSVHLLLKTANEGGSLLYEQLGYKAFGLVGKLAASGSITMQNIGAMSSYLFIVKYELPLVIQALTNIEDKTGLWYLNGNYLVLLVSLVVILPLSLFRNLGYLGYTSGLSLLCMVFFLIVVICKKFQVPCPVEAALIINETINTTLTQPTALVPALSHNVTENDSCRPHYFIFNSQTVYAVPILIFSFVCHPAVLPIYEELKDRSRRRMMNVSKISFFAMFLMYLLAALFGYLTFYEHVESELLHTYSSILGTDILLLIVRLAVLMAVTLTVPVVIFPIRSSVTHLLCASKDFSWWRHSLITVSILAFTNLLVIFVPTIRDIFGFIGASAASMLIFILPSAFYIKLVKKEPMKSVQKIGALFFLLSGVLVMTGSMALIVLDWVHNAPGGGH
The method, then: as §1, §2

T2 sequence (Q01650 whole entry, species assumed, one chain of several): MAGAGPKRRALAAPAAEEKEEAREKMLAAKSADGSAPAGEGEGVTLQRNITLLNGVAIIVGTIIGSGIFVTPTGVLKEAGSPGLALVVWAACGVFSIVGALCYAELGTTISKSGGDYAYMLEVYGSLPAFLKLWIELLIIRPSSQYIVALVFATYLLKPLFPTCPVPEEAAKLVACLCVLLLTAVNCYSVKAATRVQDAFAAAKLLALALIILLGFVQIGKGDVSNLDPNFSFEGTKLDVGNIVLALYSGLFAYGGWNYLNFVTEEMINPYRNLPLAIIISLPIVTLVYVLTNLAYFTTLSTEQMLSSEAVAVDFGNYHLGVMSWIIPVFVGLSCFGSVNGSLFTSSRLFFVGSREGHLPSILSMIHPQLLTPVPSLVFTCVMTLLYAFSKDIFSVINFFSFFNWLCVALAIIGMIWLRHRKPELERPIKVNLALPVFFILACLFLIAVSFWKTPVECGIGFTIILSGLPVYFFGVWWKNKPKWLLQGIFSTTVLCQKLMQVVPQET

As to `N[C@H](CO)C(=O)O` [D-Serine, D-serine], the D-serine transport result at LAT2/4F2hc is reported as “did not exhibit detectable D-serine transport activity”; at system L1 (LAT1/4F2hc) it was “significant ability to transport”; at ATA3, “did not”; on ATA2, “showed D-serine transport activity”.
